One experiment relates to Huh-7. Put plainly: Activation of glucose transporter in human Huh-7 cells assessed as increase in glucose uptake at 800 ug/ml preincubated for 30 mins followed by […] addition and measured after 45 mins by fluorescence assay. The experiment is classed as cell-based. The following applies: dose 800.0 µg/ml, time 75.0 min.
Experiment [1] is described as follows: Activation of glucose transporter in human Huh-7 cells assessed as increase in glucose uptake preincubated for 30 mins followed by 2-NDBG addition and measured after 45 mins by fluorescence assay.

Here are results for seven molecules from ChEMBL document CHEMBL4699637, “Glycosylated Phenols and an Unprecedented Diacid from the Saudi Plant Cissus rotundifolia” (J Nat Prod, 2020).

Active and inactive are the calls of the source. The calls are words filed in the database; no cut-off is given here.

Turning to `O=C1OC[C@H]2O[C@@](CO)(O[C@H]3O[C@H](COC(=O)[C@H]4[C@H]1[C@@H](c1ccc(O)cc1)[C@@H]4c1ccc(O)cc1)[C@@H](O)[C@H](O)[C@H]3O)[C@@H](O)[C@@H]2O`, the outcome in the experiment on Huh-7 was inactive.

`O=c1cc(-c2ccc(O)cc2)oc2cc(O)c([C@@H]3O[C@H](CO)[C@@H](O)[C@H](O)[C@H]3O[C@@H]3O[C@H](CO)[C@@H](O)[C@H](O)[C@H]3O)c(O)c12`: the result in the experiment with Huh-7 was inactive. Regarding `O=C(O)/C=C\c1ccc(O[C@@H]2O[C@H](CO)[C@@H](O)[C@H](O)[C@H]2O)cc1`, the outcome with Huh-7 was inactive. As for `O=c1cc(-c2ccc(O)cc2)oc2c([C@@H]3O[C@H](CO)[C@@H](O)[C@H](O)[C@H]3O[C@@H]3O[C@H](CO)[C@@H](O)[C@@H]3O)c(O)cc(O)c12`, in the experiment with Huh-7, the outcome was inactive. Take `O=C(/C=C/c1ccc(O)cc1)O[C@@H]1O[C@H](CO)[C@@H](O)[C@H](O)[C@H]1O`: in the experiment with Huh-7 (filed as activator), the fold change (FC) was 2. Also, the EC50 in experiment [1] is 7.7 µM.

Consider `CC(/C=C/C(=O)O)=C\C=C\C[C@H](O[C@@H]1O[C@H](CO)[C@@H](O)[C@H](O)[C@H]1O)[C@H](C)CC(=O)O`, for which the outcome in the experiment on Huh-7 was inactive. On to `O=c1cc(-c2ccc(O)c(O)c2)oc2c([C@@H]3O[C@H](CO)[C@@H](O)[C@H](O)[C@H]3O[C@@H]3O[C@H](CO)[C@@H](O)[C@@H]3O)c(O)cc(O)c12`, for which the outcome in the experiment on Huh-7 was inactive.

Broadly, the EC50 is the concentration that produces a half-maximal response.
